Assays:
[1] = target: T1, firefly luciferase (Photinus pyralis, UniProt P08659); assay: Versions of firefly luciferase reagent, firefly luciferase only samples (Example 10); type: biochemical
Procedure: (§1) Eight different versions of firefly luciferase reagent were made. The versions contained one of two luciferin substrates: luciferin or 5′ fluoroluciferin. The versions also differed in whether they contained Coenzyme A and/or DTT (a thiol). All versions of the reagent contained 250 mM HEPES pH 7.4, 16 mM MgSO4, 2 mM ATP and 2 mM luciferin or 5′fluoroluciferin. To create the various versions of the firefly luciferase reagent, 20 mM DTT, 2 mM Coenzyme A, 20 mM DTT and 2 mM Coenzyme A or neither DTT or Coenzyme A was added. In addition, sub-versions of the reagent were created which contained 0.3 mM of the indole (#3077) Renilla luciferase quencher, 0.04% (w:v) of the detergent (4-((dodecyldimethylammonium)methyl)benzoate) Renilla luciferase quencher, both quenchers or neither quencher. In all, a total of 32 versions of firefly luciferase reagent were created (Table 10).
(§2) To mimic the effect of measuring Renilla luciferase luminescence followed by the measurement of firefly luciferase luminescence in a single sample, side-by-side samples (each in triplicate) were used for each version of reagent. The first triplicate of samples comprised one of the versions of firefly luciferase reagent and a firefly luciferase solution (added 1:1) containing F12 medium (Invitrogen), 1 mg/ml BSA (ThermoFisher) and 14 ng/ml QuantiLum® luciferase (Promega). The second triplicate of samples comprised the same version of firefly luciferase reagent used in the first trio and a firefly/Renilla luciferase solution (added 1:1) containing F12 medium, 1 mg/ml BSA, 14 ng/ml QuantiLum® luciferase and 140 ng/ml Renilla luciferase. Firefly and Renilla luciferase luminescence was measured as previously described in both sets of samples at the same time. […] The firefly luciferase measurements were obtained from the samples only containing the firefly luciferase while the Renilla luciferase measurements were obtained from the samples containing both firefly and Renilla luciferases.

[2] = target: T2, Renilla luciferase (Renilla reniformis, UniProt P27652); assay: Quench of Renilla luciferase luminescence in lysed CHO cells expressing Renilla luciferase (Example 7); type: cell-based; details: for Inhibition (Initial/Addition): 10 μM #3077 and/or 0.04% #1424, 0.5% Tergitol NP-9; for Renilla luciferase luminescence after inhibitor addition: 3 minutes after lysis solution with 0.5% Tergitol NP-9 and 10 μM #3077 and/or 0.04% #1424; for Initial Renilla luciferase luminescence: CHO cells, EnduRen, before inhibitor addition
T2 sequence (P27652 1-311): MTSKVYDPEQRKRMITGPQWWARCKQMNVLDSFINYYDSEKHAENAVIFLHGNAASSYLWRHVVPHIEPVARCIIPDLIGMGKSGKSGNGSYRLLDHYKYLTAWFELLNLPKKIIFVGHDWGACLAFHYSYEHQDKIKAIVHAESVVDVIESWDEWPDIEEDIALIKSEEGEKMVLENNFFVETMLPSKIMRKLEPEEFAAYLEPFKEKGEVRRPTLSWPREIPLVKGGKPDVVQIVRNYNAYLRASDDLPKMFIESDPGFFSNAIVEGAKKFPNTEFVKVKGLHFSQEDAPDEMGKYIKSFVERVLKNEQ
Procedure: Renilla luciferase was expressed under the control of the CMV promoter in Chinese Hamster Ovary (CHO) cells. The cells were grown in DMEM+10% FBS (Invitrogen). The cells (20,000) were plated in 96-well plates and cultured in the presence of the EnduRen™ Live Cell Substrate (Promega) in order to generate continuous Renilla luciferase-mediated luminescence. After 12 hours of culturing, Renilla luciferase-mediated luminescence was measured. After measurement, the cells were lysed with an equal volume of a solution containing 0.5% Tergitol NP-9 and either 10 μM compound #3077 (non-detergent inhibitor), 0.04% 4-((dodecyldimethylammonium)methyl)benzoate (#1424) (detergent inhibitor), or a combination of the two. The cells were exposed for 3 minutes and Renilla luciferase-mediated luminescence was measured.

[3] = target: T1, firefly luciferase; assay: Detergent screen with Tergitol NP-9, firefly luciferase (Example 3); type: biochemical; details: 0.06% quencher in reagent solution; 0.5% Tergitol NP-9
Procedure: (§3) Unless otherwise specified, materials were obtained from Sigma-Aldrich.
(§4) The firefly luciferase and Renilla luciferase enzymes were diluted as follows. Firefly luciferase was diluted to 14 ng/ml in Delbecco's Minimal Essential (DMEM) medium (Gibco/Invitrogen) containing 0.1% Prionex®. Renilla luciferase was diluted to 10 ng/ml in DMEM medium containing 0.1% Prionex®.
(§5) The luciferase reactions were initiated by adding 50 μl of the firefly luciferase or Renilla luciferase enzyme solution to 50 μl of reagent solution. The reactions were performed as described above. The retained firefly luciferase and Renilla luciferase luminescence as well as the selectivity values for each quencher were calculated (Table 3). The values listed are based on 0.06% quencher in the reagent solution.

[4] = target: T2, Renilla luciferase; assay: Versions of firefly luciferase reagent, firefly/Renilla luciferase samples (Example 10); type: biochemical; details: firefly/Renilla sample
Procedure: as §1, §2

[5] = target: T2, Renilla luciferase; assay: Detergent screen with Tergitol NP-9, Renilla luciferase (Example 3); type: biochemical; details: 0.5% Tergitol NP-9; for Retained Renilla Luminescence (%): 0.06% quencher in reagent solution; for Selectivity Value: retained firefly / retained Renilla, 0.06% quencher
Procedure: as §3, §4, §5

[6] = target: T2, Renilla luciferase; assay: Quench of Renilla luciferase luminescence by competitive inhibitors in detergent-containing quenching reagent (Example 1); type: biochemical
Procedure: Renilla luciferase (1×10^−9 M in Renilla Luciferase Lysis Buffer (Promega))+0.1% Prionex (PentaPharma) was added to Renilla Luciferase Assay Buffer (Promega) containing 3 μM coelenterazine-h. The initial Renilla luciferase-mediated luminescence was measured for 10 seconds using a Turner 20/20 n (Turner BioSystems). A quenching reagent containing 50 mM HEPES pH 7.4, 16 mM MgSO4, 1 mM CDTA, 0.5% Tergitol NP-9, 0.015% dodecyltrimethylammonium bromide, 10 mM thiourea, 0.05% Mazu-DF-204 (PGP), and 1.5 mM ATP (Pharmacia) was added to the reactions to reduce the Renilla luciferase-mediated luciferase luminescence. […] After the addition of the inhibitors, a second Renilla luciferase-mediated luminescence reading was taken. Unless otherwise specified, materials were obtained from Sigma-Aldrich.
The quenching agents described herein are effective in the presence of detergents used for cell lysis as well as other quenching agents.

[7] = target: T1, firefly luciferase; assay: Non-detergent compound screen, firefly luciferase (Example 6); type: biochemical; details: 0.5% Tergitol NP-9, 0.03% BDDABr, read-out: Retained Firefly Luciferase Value (%)
Procedure: (§6) Each compound was diluted into 200 mM MOPS pH 6.7, 4 μM MgSO4, 1 mM CDTA, 0.5% Tergitol NP-9, 0.05% Mazu-DF-204, 0.03% BDDABr, 30 mM thiourea, 1 mM bis-(2-mercaptoethylsulfone) (BMS), 4 μM CoA, and 1 μM 5-fluoroluciferin. Just prior to the luciferase reaction, 0.1% Prionex® (Pentapharm) and 2.9 μM coelenterazine-h (Promega) were added to each solution.
(§7) The firefly luciferase and Renilla luciferase enzymes were diluted as described in Examples 3 and 5. The luciferase reactions were initiated by adding 50 μl of the firefly luciferase and Renilla luciferase enzyme solution to 50 μl of reagent solution. The reactions were performed as described above. The retained Renilla and firefly luciferase-mediated luminescence and selectivity values for each inhibitor tested are listed in Table 6.

[8] = target: T2, Renilla luciferase; assay: Non-detergent compound screen, Renilla luciferase (Example 6); type: biochemical
Procedure: as §6, §7

[9] = Luciferin, no thiol, 0.3 mM #3077 and/or 0.04% #1424
[10] = Quench Reagent + 10 μM inhibitor
[11] = Quench Reagent + 100 μM inhibitor

T1 sequence (P08659 whole entry): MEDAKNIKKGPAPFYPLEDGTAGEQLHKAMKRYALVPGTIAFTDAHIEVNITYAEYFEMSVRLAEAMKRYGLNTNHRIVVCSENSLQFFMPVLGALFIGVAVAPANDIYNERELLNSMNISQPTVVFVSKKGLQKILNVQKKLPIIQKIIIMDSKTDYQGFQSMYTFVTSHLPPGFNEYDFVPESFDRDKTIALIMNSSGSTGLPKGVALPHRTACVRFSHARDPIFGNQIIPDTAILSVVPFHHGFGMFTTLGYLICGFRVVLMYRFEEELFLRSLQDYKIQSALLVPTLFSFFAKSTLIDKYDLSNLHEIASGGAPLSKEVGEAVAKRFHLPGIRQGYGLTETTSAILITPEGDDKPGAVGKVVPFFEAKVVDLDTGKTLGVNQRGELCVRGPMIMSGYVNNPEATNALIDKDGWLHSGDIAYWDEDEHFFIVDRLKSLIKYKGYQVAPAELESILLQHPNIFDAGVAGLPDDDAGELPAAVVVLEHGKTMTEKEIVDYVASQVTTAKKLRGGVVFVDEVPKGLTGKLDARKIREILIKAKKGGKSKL

CCCCCCCCCCCC[N+](C)(C)Cc1ccc(C(=O)[O-])cc1 [Compound 1424, 4-((Dodecyldimethylammonium)methyl)benzoate]
Firefly luminescence ([1]; 5′-fluoroluciferin, CoA): 2,095,790
Firefly luminescence ([1]; 5′-fluoroluciferin, DTT): 512,625
Firefly luminescence ([1]; 5′-fluoroluciferin, DTT + CoA): 2,376,253
Firefly luminescence ([1]; 5′-fluoroluciferin, no thiol): 268,289
Firefly luminescence ([1]; Luciferin, CoA): 1,621,883
Firefly luminescence ([1]; Luciferin, DTT): 291,173
Firefly luminescence ([1]; Luciferin, DTT + CoA): 1,881,453
Firefly luminescence [1, 9]: 144,239
Inhibition (Initial/Addition) [2]: 52
Renilla luciferase luminescence after inhibitor addition [2]: 19963
Initial Renilla luciferase luminescence [2]: 1037560
Retained Firefly Luminescence (%) [3]: 127.0%
Renilla luminescence ([4]; 5′-fluoroluciferin, CoA): 2,891,880
Renilla luminescence ([4]; 5′-fluoroluciferin, DTT + CoA): 2,833,435
Renilla luminescence ([4]; 5′-fluoroluciferin, DTT): 1,142,573
Renilla luminescence ([4]; 5′-fluoroluciferin, no thiol): 1,138,027
Renilla luminescence ([4]; Luciferin, CoA): 2,240,063
Renilla luminescence ([4]; Luciferin, DTT + CoA): 2,265,505
Renilla luminescence ([4]; Luciferin, DTT): 699,059
Renilla luminescence ([4]; Luciferin, no thiol): 660,916
Retained Renilla Luminescence (%) [5]: 20.0%
Selectivity Value [5]: 6.4

methylether coelenterazine-hh
Reduction in Renilla luciferase luminescence after 2nd measurement [6, 10]: 21-fold
Reduction in Renilla luciferase luminescence after 2nd measurement [6, 11]: 34-fold

CCCCCCCCCCCC[N+](C)(C)Cc1ccc2c(c1)CCCC2.[Cl-] [Dimethyldodecyl(5,6,7,8-tetrahydro-2-naphthylmethyl)ammonium chloride]
Retained Firefly Luminescence (%) [3]: 112.0%
Retained Renilla Luminescence (%) [5]: 118.0%
Selectivity Value [5]: 0.9

CCCCCCCCCCCCOCC[N+](C)(C)Cc1ccccc1.[Cl-] [Benzyldimethyl(2-dodecyloxethyl)ammonium chloride]
Retained Firefly Luminescence (%) [3]: 174.0%
Retained Renilla Luminescence (%) [5]: 20.5%
Selectivity Value [5]: 8.5

O=C(Cc1ccc(O)cc1)Nc1ncc(-c2ccc(O)cc2)nc1Cc1ccccc1 [coelenteramide]
Reduction in Renilla luciferase luminescence after 2nd measurement [6, 10]: 18-fold
Reduction in Renilla luciferase luminescence after 2nd measurement [6, 11]: 21-fold
Ki ([6]; in the presence of lysing detergent and quenching reagent): > 100 µM

N-benzyl-N,N-dimethylloctan-1-aminium bromide
Retained Firefly Luminescence (%) [3]: 134%
Retained Renilla Luminescence (%) [5]: 13%
Selectivity Value [5]: 10.3

methylether coelenterazine-h
Reduction in Renilla luciferase luminescence after 2nd measurement [6, 10]: 15-fold
Reduction in Renilla luciferase luminescence after 2nd measurement [6, 11]: 30-fold

CCCC[N+](C)(C)CCc1c[nH]c2ccc(/C=C/C(=O)NCc3ccc(OC)cc3)cc12.[I-] [Compound 3077, (E)-N-(2-(5-(3-(4-methoxybenzylamino)-3-oxoprop-1-enyl)-1H-indol-3-yl)ethyl)-N,N-dimethylbutan-1-aminium iodide]
Firefly luminescence ([1]; 5′-fluoroluciferin, CoA): 2,367,927
Firefly luminescence ([1]; 5′-fluoroluciferin, DTT): 499,900
Firefly luminescence ([1]; 5′-fluoroluciferin, DTT + CoA): 2,677,367
Firefly luminescence ([1]; 5′-fluoroluciferin, no thiol): 239,138
Firefly luminescence ([1]; Luciferin, CoA): 1,502,143
Firefly luminescence ([1]; Luciferin, DTT): 252,225
Firefly luminescence ([1]; Luciferin, DTT + CoA): 1,821,797
Firefly luminescence [1, 9]: 115,749
remaining activity at 10 µM ([7]; inhibitor 10 μM): 100%
remaining activity at 100 µM ([7]; inhibitor 100 μM): 98%
remaining activity at 1000 µM ([7]; inhibitor 1000 μM): 98%
Inhibition (Initial/Addition) [2]: 608
effectiveness at quenching Renilla luciferase-mediated luminescence relative to #1424 alone ([2]; 10 μM #3077 vs 0.04% #1424): about 12 fold
Renilla luciferase luminescence after inhibitor addition [2]: 1402
Initial Renilla luciferase luminescence [2]: 852596
Renilla luminescence ([4]; 5′-fluoroluciferin, CoA): 2,360,350
Renilla luminescence ([4]; 5′-fluoroluciferin, DTT + CoA): 2,653,610
Renilla luminescence ([4]; 5′-fluoroluciferin, DTT): 514,808
Renilla luminescence ([4]; 5′-fluoroluciferin, no thiol): 280,188
Renilla luminescence ([4]; Luciferin, CoA): 1,572,983
Renilla luminescence ([4]; Luciferin, DTT + CoA): 1,770,665
Renilla luminescence ([4]; Luciferin, DTT): 260,392
Renilla luminescence ([4]; Luciferin, no thiol): 136,759
Selectivity Value ([8]; inhibitor 10 μM): 20
remaining activity at 10 µM ([8]; inhibitor 10 μM, 0.5% Tergitol NP-9, 0.03% BDDABr, read-out: Retained Renilla Luciferase Value (%)): 5%
Selectivity Value ([8]; inhibitor 100 μM): 98
remaining activity at 100 µM ([8]; inhibitor 100 μM, 0.5% Tergitol NP-9, 0.03% BDDABr, read-out: Retained Renilla Luciferase Value (%)): 1%
Selectivity Value ([8]; inhibitor 1000 μM): 980
remaining activity at 1000 µM ([8]; inhibitor 1000 μM, 0.5% Tergitol NP-9, 0.03% BDDABr, read-out: Retained Renilla Luciferase Value (%)): 0.1%

C[N+](C)(Cc1ccccc1)C1CCCCC1.[Br-] [N-benzyl-N,N-dimethylcyclohexanaminium bromide]
Retained Firefly Luminescence (%) [3]: 90%
Retained Renilla Luminescence (%) [5]: 76%
Selectivity Value [5]: 1.2

CCCCCCCCCCCC[N+](C)(C)C1c2ccccc2-c2ccccc21.[Br-] [N-dodecyl-N,N-dimethyl-9H-fluoren-9-aminium bromide]
Retained Firefly Luminescence (%) [3]: 37%
Retained Renilla Luminescence (%) [5]: 1%
Selectivity Value [5]: 37
